Measurements from PMC4604124, “In Vitro Characterization of the Pharmacological Properties of the Anti-Cancer Chelator, Bp4eT, and Its Phase I Metabolites” (PLoS ONE, 2015).
Values joined by “and” are separate entries in the source; they are usually repeats but may differ in a detail not shown here. Identical values can stand only once. Like-named read-outs stand apart in the source and are kept apart here.

How the values were obtained:
[1] = tested on: labile iron pool of MCF-7 cells; assay: Calcein-AM assay, access to the labile iron pool; type: cell-based, human; set-up: Calcein fluorescence: unit not given here; details: 10 μM; for Chelation efficacy: fluorescence of free calcein at t = 600 s as percentage of Bp4eT: MCF-7, mean of 6 experiments; for Fluorescence of free calcein at 600 s as percentage of Bp4eT: MCF-7, single experiments
Procedure: These experiments were performed according to Glickstein et al. with slight modifications. The MCF-7 cells were seeded in 96-well plates (10,000 cells/well) and allowed to adhere for 24 h/37°C. Cells were loaded with iron using the cellular iron donor, ferric ammonium citrate (530 μg/mL), 24 h prior to the experiment, and then washed. To prevent potential interference, especially with regard to various trace elements, the medium was replaced with ADS buffer (prepared using Millipore water supplemented with 116 mM NaCl, 5.3 mM KCl, 1 mM CaCl2, 1.2 mM MgSO4, 1.13 mM NaH2PO4, 5 mM D-glucose, and 20 mM HEPES, pH 7.4). Cells were then loaded with 2 μM of the cell-permeable calcein green acetoxymethyl ester (calcein-AM; Molecular Probes, Oregon, USA) for 30 min/37°C and washed. Cellular esterases cleave the acetoxymethyl groups to form the cell membrane-impermeable compound, calcein green. The fluorescence of calcein green is quenched upon binding iron. The intracellular fluorescence (λex = 488 nm; λem = 530 nm) of calcein green was then followed as a function of time (10 min after the addition of 10 μM Bp4eT or its metabolites) at 37°C using the Tecan Infinite 200M plate reader. The iron chelation efficacy of the metabolites in cells was expressed as a percentage of the efficacy of the parent chelator, Bp4eT (100%).

caspase 9 = assay: Caspase activity, luminescent kit, caspase 9; type: cell-based, human; details: for kaspáza 9, raw signal / kaspáza 9, signal / viabilita: individual experiments by date; for kaspáza 9, raw signal, průměry / kaspáza 9, % kontroly / kaspáza 9, signal / viabilita, průměry: mean; for kaspáza 9, % kontroly / kaspáza 9, signal / viabilita / kaspáza 9, signal / viabilita, průměry: normalised to viability
Procedure: To assess the effect of the compounds on caspase activity, MCF-7 cells were incubated with 100 nM Bp4eT or its metabolites for 3, 24 or 72 h/37°C in 96-well plates, as described above. The cells were then lysed by adding 100 μL of cold lysis buffer (100 mM HEPES, 10 mM CHAPS, 10 mM D-L-dithiothreitol, pH 7.4) to 100 μL of medium in each well. Lysates were immediately frozen at -80°C. Thawed lysates were used to assess caspase activity using luminescent kits for caspases 3/7, 8 and 9 (Promega, Madison, WI, USA). The luminescence was measured using the Tecan Infinite 200M plate reader. Caspase activity in the experimental groups was corrected according to the cellular viability of each group and expressed as a percentage of activity of the untreated control (100%).

[2] = MTT cytotoxicity assay, 3T3 cells; type: cell-based, mouse; details: mouse, 3T3 mouse embryo fibroblasts, 3T3, 10 000 b/j; for viability at 72 h, 1 μM: koncentrace 1 μM; for viability at 72 h, 3 μM: koncentrace 3 μM; for viability at 72 h, 10 μM: koncentrace 10 μM; for viability at 72 h, 30 μM: koncentrace 30 μM; for viability at 72 h, 100 μM: koncentrace 100 μM; for viability at 72 h, 300 μM: koncentrace 300 μM; for viability at 72 h, 1000 μM: koncentrace 1000 μM
Procedure: For cytotoxicity experiments, cancer cells were seeded at a density of 5,000 (MCF-7), 10,000 (HL-60) or 2,000 cells/well (HCT116 and A549) in 96-well plates (TPP) for 24 h/37°C prior to the addition of examined agents. The non-cancerous cells, 3T3 and H9c2 cells, were cultured for 24 h/37°C in 96-well plates at a density of 10,000 cells/well, the medium was then changed to serum- and pyruvate-free DMEM (Sigma-Aldrich) and incubated with the cells for another 24 h/37°C. The cytotoxic effects of Bp4eT and its metabolites were studied at different concentrations after a 72 h/37°C incubation. In order to aid the dissolution of the lipophilic ligands, 0.1% dimethyl sulfoxide (v/v) (DMSO; Sigma-Aldrich) was present in the culture medium of all groups. At this concentration, DMSO had no effect on cellular proliferation or viability.
The viability of cells were determined using an MTT assay (Sigma-Aldrich) according to previously established methods. The optical density of soluble MTT was measured at λ = 570 nm, subtracting the λ = 690 nm background using a Tecan Infinite 200M plate reader (Tecan Group, Männedorf, Switzerland). The viability or proliferation of experimental groups was expressed as a percentage of the untreated controls (100%).
SigmaStat for Windows 3.5 (Systat Software, San Jose, CA, USA) statistical software package was utilized to analyze results. The data are expressed as the mean ± SD of a given number of experiments. Statistical significance was determined using a one-way ANOVA with a Bonferroni post-hoc test or Student’s t-test. The results were considered to be statistically significant when p < 0.05. The IC50 values were calculated using CalcuSyn 2.0 software (Biosoft, Cambridge, UK). Cell cycle analysis was evaluated using MultiCycle AV Software (Phoenix Flow Systems, San Diego, CA, USA).

[3] = tested on: MCF-7 cells prelabeled with 59Fe2-transferrin; assay: Mobilization (efflux) of cellular 59Fe; type: cell-based, human; set-up: Efflux 59Fe / Efflux 59Fe, Ave: unit not given here; details: for Efflux 59Fe, Ave: average of all replicates; for Efflux 59Fe: single replicate (three per date)
From the text: Human transferrin (Sigma) was labeled with ^56Fe or ^59Fe (PerkinElmer, Massachusetts, USA) to produce ^56Fe2-transferrin or ^59Fe2-transferrin (^59Fe2-Tf), respectively, with a final specific activity of 500 pCi/pmol Fe, as previously described. Unbound ^59Fe was removed by exhaustive vacuum dialysis against a large excess of 0.15 M NaCl buffered to pH 7.4 with 1.4% NaHCO3 by standard methods.
To examine the ability of studied compounds to mobilize cellular ^59Fe from MCF-7 cells, iron efflux experiments were performed using established techniques. In brief, after pre-labeling confluent MCF-7 cells on 6-well plates with 0.75 μM ^59Fe2-Tf for 3 h/37°C, the cells were washed four times with ice-cold PBS and then subsequently incubated with 25 μM of Bp4eT or its metabolites for 3 h/37°C. The overlying medium containing released ^59Fe was then decanted from the cells. Radioactivity was measured in both the cells and the supernatant using a γ-scintillation counter (Wallac Wizard 3, Turku, Finland).

[4] = individual experiments, read-out: MTT viability (0 = 100)
[5] = mean, read-out: MTT viability (0 = 100), průměr

CCNC(=O)NN=C(c1ccccc1)c1ccccn1 [E-Bp4eS, 2-benzoylpyridine 4-ethylsemicarbazone]
Calcein fluorescence ([1]; 30 sec, mean (průměr)): 0.000
Calcein fluorescence ([1]; 30 sec, single experiments): 0.000
Calcein fluorescence ([1]; 60 sec, mean (průměr)): 3.596
Calcein fluorescence ([1]; 90 sec, mean (průměr)): 0.696
Calcein fluorescence ([1]; 120 sec, mean (průměr)): 1.617
Calcein fluorescence ([1]; 300 sec, mean (průměr)): 0.000
Calcein fluorescence ([1]; 300 sec, single experiments): 0.000
Calcein fluorescence ([1]; 600 sec, mean (průměr)): 0.000
Calcein fluorescence ([1]; 600 sec, single experiments): 0.000
Chelation efficacy: fluorescence of free calcein at t = 600 s as percentage of Bp4eT [1]: 0.0001667%
Fluorescence of free calcein at 600 s as percentage of Bp4eT [1]: 0%
kaspáza 9, raw signal (caspase 9; 3 hodiny): 5048 and 2733 and 3173 and 2706.5
kaspáza 9, raw signal, průměry (caspase 9; 3 hodiny): 3415.12
kaspáza 9, % kontroly (caspase 9; 3 hodiny): 105.55 % kontroly
kaspáza 9, signal / viabilita (caspase 9; 3 hodiny): 51.4121 and 27.8346 and 32.3159 and 27.5647
kaspáza 9, signal / viabilita, průměry (caspase 9; 3 hodiny): 34.7818
kaspáza 9, raw signal (caspase 9; 24 hodin): 3856 and 3865 and 5378.5 and 4257
kaspáza 9, raw signal, průměry (caspase 9; 24 hodin): 4339.12
kaspáza 9, % kontroly (caspase 9; 24 hodin): 110.34 % kontroly
kaspáza 9, signal / viabilita (caspase 9; 24 hodin): 38.7665 and 38.857 and 54.073 and 42.798
kaspáza 9, signal / viabilita, průměry (caspase 9; 24 hodin): 43.6236
kaspáza 9, raw signal (caspase 9; 72 hodin): 22791 and 20686 and 21610 and 23932
kaspáza 9, raw signal, průměry (caspase 9; 72 hodin): 22254.8
kaspáza 9, % kontroly (caspase 9; 72 hodin): 104.60 % kontroly
kaspáza 9, signal / viabilita (caspase 9; 72 hodin): 233.013 and 211.492 and 220.939 and 244.678
kaspáza 9, signal / viabilita, průměry (caspase 9; 72 hodin): 227.53
viability at 72 h, 1 μM [2, 4]: 91%
viability at 72 h, 1 μM [2, 5]: 98%
viability at 72 h, 3 μM [2, 4]: 96.2%
viability at 72 h, 3 μM [2, 5]: 94.8%
viability at 72 h, 10 μM [2, 4]: 91.6%
viability at 72 h, 10 μM [2, 5]: 92.9%
viability at 72 h, 30 μM [2, 4]: 86.3%
viability at 72 h, 30 μM [2, 5]: 90.2%
viability at 72 h, 100 μM [2, 4]: 87.1%
viability at 72 h, 100 μM [2, 5]: 83.9%
viability at 72 h, 300 μM [2, 4]: 85.3%
viability at 72 h, 300 μM [2, 5]: 81.5%
viability at 72 h, 1000 μM [2, 4]: 74.1%
viability at 72 h, 1000 μM [2, 5]: 66.7%
Efflux 59Fe, Ave [3]: 3.661
Efflux 59Fe [3]: 4.9211 and 3.6997 and 3.3917 and 3.5987 and 3.8929 and 3.2529 and 3.6068 and 3.4574 and 3.1235

CCNC(=O)NN=C(c1ccccc1)c1ccccn1 [Z-Bp4eS, 2-benzoylpyridine 4-ethylsemicarbazone]
Calcein fluorescence ([1]; 30 sec, mean (průměr)): 11.525
Calcein fluorescence ([1]; 60 sec, mean (průměr)): 8.244
Calcein fluorescence ([1]; 90 sec, mean (průměr)): 15.042
Calcein fluorescence ([1]; 120 sec, mean (průměr)): 10.528
Calcein fluorescence ([1]; 300 sec, mean (průměr)): 1.225
Calcein fluorescence ([1]; 600 sec, mean (průměr)): 2.196
Chelation efficacy: fluorescence of free calcein at t = 600 s as percentage of Bp4eT [1]: 0.9956%
Fluorescence of free calcein at 600 s as percentage of Bp4eT [1]: 0% and 5.974%
kaspáza 9, raw signal (caspase 9; 3 hodiny): 6118 and 2344.5 and 3460 and 2039.5
kaspáza 9, raw signal, průměry (caspase 9; 3 hodiny): 3490.5
kaspáza 9, % kontroly (caspase 9; 3 hodiny): 100.62 % kontroly
kaspáza 9, signal / viabilita (caspase 9; 3 hodiny): 62.8087 and 24.0691 and 35.5211 and 20.938
kaspáza 9, signal / viabilita, průměry (caspase 9; 3 hodiny): 35.8342
kaspáza 9, raw signal (caspase 9; 24 hodin): 4532 and 2581 and 5427.5 and 4043
kaspáza 9, raw signal, průměry (caspase 9; 24 hodin): 4145.88
kaspáza 9, % kontroly (caspase 9; 24 hodin): 101.82 % kontroly
kaspáza 9, signal / viabilita (caspase 9; 24 hodin): 45.5674 and 25.9509 and 54.5713 and 40.6507
kaspáza 9, signal / viabilita, průměry (caspase 9; 24 hodin): 41.6851
kaspáza 9, raw signal (caspase 9; 72 hodin): 21491.5 and 17542 and 23160 and 18381
kaspáza 9, raw signal, průměry (caspase 9; 72 hodin): 20143.6
kaspáza 9, % kontroly (caspase 9; 72 hodin): 100.13 % kontroly
kaspáza 9, signal / viabilita (caspase 9; 72 hodin): 229.757 and 187.535 and 247.595 and 196.504
kaspáza 9, signal / viabilita, průměry (caspase 9; 72 hodin): 215.348
Efflux 59Fe, Ave [3]: 3.856
Efflux 59Fe [3]: 5.4747 and 4.265 and 4.3539 and 3.0981 and 3.2068 and 3.9182 and 3.1551 and 3.9954 and 3.2369
